{"source": "patent US11382907B2", "about": "“Methods and compositions for treating aging-associated impairments using CCR3-inhibitors” (Alkahest, Inc., priority 2017, dated 2022)", "key": {"[1]": {"test_system": "two-month-old C57Bl/6 mice treated with rmCCL11", "experiment": "Barnes maze test in young mice given recombinant mouse CCL11", "format": "in vivo", "conditions": "2-month-old mice; rmCCL11 i.p.; Compound 1 30 mg/kg p.o. b.i.d.", "source_text": "(§1) A modified Barnes maze was used to assess spatial working/episodic like learning and memory. The Barnes maze apparatus consists of a 122 cm diameter circular platform with 40 escape holes, each with a diameter of 5 cm placed along three rings of varying distances from the center of the platform. An escape box is attached to one of the holes and all holes are left uncovered. Bright lights and a fan are trained on the maze to provide adverse stimuli to encourage escape. Visual cues are placed on all four sides of the maze. Mice are given a series of 4 or 5 trials with inter-trial intervals of approximately 10 min, and the maximum duration of each trial is 90 or 120 sec. For each trial, mice are placed in the center of the maze. After 10 seconds, mice are allowed to explore, and the trial is ended if the mouse has found and entered an escape box before the end of the trial. Mice that cannot find the escape box are led to it and allowed to enter and given 30 sec to remain before being returned to its home cage. Training is done for 4 days. Data that is recorded and analyzed include velocity, escape latency, and distance moved.\nTwo-month-old C57Bl/6 mice were dosed with either vehicle control or Compound 1 by oral gavage twice daily for 18 days. During the last week of treatment, mice were subjected to behavior testing prior to perfusion on the last day of treatment. […]"}, "IL-1beta mRNA": {"test_system": "IL-1beta mRNA", "experiment": "qPCR of IL-1beta mRNA in cortical brain tissue of mice given daily LPS", "format": "in vivo, C57Bl/6 mice", "conditions": "3-month-old mice, daily LPS IP 7 weeks, 30 mg/kg PO BID 4 weeks", "source_text": "Snap-frozen hemibrains were dissected out into cortex, hippocampus, striatum, and thalamus. The cortex was split into three homogeneous parts and one part was used for RNA isolation. RNA was isolated using the Prolink RNA Mini Kit (Thermo Fisher Scientific #12183025). cDNA was made using Taqman RT Kit (Thermo Fisher Sci #N8080234). qPCR was run on a Quant Studio 6 using custom made Taqman Multiplex Primers for IL-1beta and GAPDH. All samples were run together on a single plate and analyzed for ddCT relative to their endogenous control first and then relative to the control group.\nThree-month-old C57 mice were given daily doses of lipopolysaccharide (LPS) 0.5 mg/kg IP to induce inflammation and treated with Compound 1 for up to 4 weeks. […]"}, "[2]": {"test_system": "CD68+ activated microglia", "experiment": "IHC of CD68+ activated microglia in hippocampus of aged mice", "format": "in vivo, C57Bl/6 mice", "conditions": "23-month-old mice, 30 mg/kg SQ BID 21 days", "source_text": "Mice were taken down on the day following the end of behavior testing. Anesthesia was induced by 2,2,2-tribromoethanol and mice were subsequently perfused with 0.9% saline trans-cardially. The brains were dissected and cut sagitally in two even halves. One half was snap frozen for later use in dry ice, and the other was fixed in 4% paraformaldehyde in PBS for use in immunohistochemistry. After two days of fixation, the hemibrains were transferred to a 30% sucrose in PBS solution and changed after two days. Hemibrains were sectioned at 30 um on a microtome at −22° C. Brain sections were stored in cryoprotectant media at −20° C. until needed for staining. Blocking was done on free floating sections in the appropriate serum at 10% serum in PBST 0.5%. Primary antibodies were incubated overnight at 4 C. For light microscopy, the following antibodies were used in the given concentrations: DCX, 1:200, Santa Cruz BioTech, CD68, 1:1000. AbD Serotec. Secondary biotinylated antibodies were applied the next day at a concentration of 1:300. Staining visualization was achieved by reaction with the ABC kit (Vector) and diaminobenzidine (Sigma). Dehydration of the mounted slides was achieved using ethanol and xylene dips. Images were acquired on a Leica light microscope at 5× magnification.\n23-month-old C57Bl/6 mice were dosed with either vehicle control or Compound 1 subcutaneously twice daily for 21 days. […]"}, "aged C57Bl/6 mice": {"test_system": "aged C57Bl/6 mice", "experiment": "Barnes maze test in aged mice", "format": "in vivo", "source_text": "as §1\nMice are divided into groups of 4-5 mice each, with balanced treatment groups. For example, Group 1 mice are run for 4 trials, then Group 2 mice are run for 4 trials, and so on until all groups finish testing. 70% ethanol is used to clean the arenas between trials.\nThree-month-old or 16.5-month-old C57Bl/6 mice were dosed with either vehicle control or Compound 1 subcutaneously by Alzet osmotic pump for 4 weeks. During the last week of treatment, mice were subjected to behavior testing prior to perfusion on the last day of treatment. All mice received 5 consecutive days of BrdU injection at 150 mg/kg IP immediately prior to treatment start.\n23-month-old C57Bl/6 mice were dosed with either vehicle control or Compound 1 subcutaneously twice daily for 21 days. Three weeks later, mice were subjected to behavior testing, and sacrificed the day following the last behavior test."}, "[3]": {"conditions": "16.5-month-old mice, 4-week dosing by pump"}, "[4]": {"conditions": "23-month-old mice, 30 mg/kg SQ BID 21 days, tested three weeks later"}}, "note": "Entries after “also recorded” stand apart in the source; their conditions may differ.", "data": [{"smiles": "Cc1cc(C(=O)N(C)C)cc(NC(=O)[C@H]2CCC(=O)N2C2CCN(Cc3ccc(Cl)c(C)c3)CC2)n1", "note": "[Compound 1]", "values": [{"measurement": "memory in the Barnes maze", "setting": "[1]", "result": "significantly improved memory performance"}, {"measurement": "IL-1beta mRNA level in brain", "setting": "IL-1beta mRNA", "result": "significant decrease in IL-1beta expression"}, {"measurement": "CD68+ activated microglia in the hippocampus", "setting": "[2]", "result": "strong trend towards decreased microgliosis; also recorded: trend lower"}, {"measurement": "Barnes maze average of the latency for day 4 trials", "setting": "aged C57Bl/6 mice; [3]", "result": "Trends for improved memory"}, {"measurement": "Barnes maze difference between the latencies of trials 13 and 16", "setting": "aged C57Bl/6 mice; [3]", "result": "Trends for improved memory"}, {"measurement": "performance in the Barnes maze", "setting": "aged C57Bl/6 mice; [3]", "result": "trended towards improved performance"}, {"measurement": "Barnes Maze spatial memory performance", "setting": "aged C57Bl/6 mice; [4]", "result": "performed significantly better"}, {"measurement": "velocity during the Barnes Maze test", "setting": "aged C57Bl/6 mice; [4]", "result": "exhibited increased velocity"}]}]}
